{"source": "patent US5468499A", "about": "“Liposomes containing the salt of phosphoramide mustard and related compounds” (Ohio State University, priority 1993, dated 1995)", "origin": "cited, not measured here", "test_system": "tumor"}
{"smiles": "O=P1(N(CCCl)CCCl)NCCCO1", "note": "(stereo not shown) [cyclophosphamide]", "values": [{"measurement": "tumoricidal activity of the drug itself", "result": "not directly tumoricidal"}]}
